In ChEMBL document CHEMBL1201862, “PubChem BioAssay data set” (2004):
The source made the active and inactive calls.

How the values were obtained:
[1] = biological target: cAMP-dependent protein kinase catalytic subunit PRKX (Homo sapiens, UniProt P51817); assay type: functional
[2] = biological target: ALK tyrosine kinase receptor (Homo sapiens, UniProt Q9UM73); assay type: functional;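 note: ALK tested as one member of a kinase panel screen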
[3] = biological target: Tyrosine-protein kinase Lck (Homo sapiens, UniProt P06239); assay type: functional;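 note: lck was assayed as one member of a kinase panel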
Chain of Tyrosine-protein kinase Lck (P06239 whole entry): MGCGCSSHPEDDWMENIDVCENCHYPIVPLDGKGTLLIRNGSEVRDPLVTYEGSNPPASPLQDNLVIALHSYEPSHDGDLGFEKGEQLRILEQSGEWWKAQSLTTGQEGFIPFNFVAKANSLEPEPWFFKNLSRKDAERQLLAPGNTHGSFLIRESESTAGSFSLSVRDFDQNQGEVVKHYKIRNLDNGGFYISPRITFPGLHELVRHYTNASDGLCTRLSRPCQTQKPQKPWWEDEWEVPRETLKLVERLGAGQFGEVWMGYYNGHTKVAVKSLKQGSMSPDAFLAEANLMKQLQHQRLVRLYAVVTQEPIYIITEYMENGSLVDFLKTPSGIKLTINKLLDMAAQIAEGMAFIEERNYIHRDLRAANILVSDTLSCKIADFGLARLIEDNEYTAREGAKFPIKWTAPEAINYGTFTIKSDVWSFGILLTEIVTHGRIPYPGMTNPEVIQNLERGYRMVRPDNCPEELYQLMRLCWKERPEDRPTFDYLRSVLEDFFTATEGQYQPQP

[4] = biological target: Tyrosine-protein kinase JAK2 (Homo sapiens, UniProt O60674); assay type: functional;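 note: JAK2 tested as one member of a kinase panel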
[5] = biological target: Dual specificity protein kinase CLK4 (Homo sapiens, UniProt Q9HAZ1); assay type: functional
[6] = biological target: Mitogen-activated protein kinase 8 (Homo sapiens, UniProt P45983); assay type: functional;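 note: value comes from one member of a kinome-wide kinase profiling panel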
[7] = biological target: Insulin-like growth factor 1 receptor (Homo sapiens, UniProt P08069); assay: Navigating the Kinome. Panel member name: IGF1R; assay type: functional
[8] = biological target: cAMP-dependent protein kinase catalytic subunit alpha (Homo sapiens, UniProt P17612); assay type: functional
[9] = biological target: Ribosomal protein S6 kinase alpha-3 (Homo sapiens, UniProt P51812); assay type: functional;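 note: measured within a kinome-wide profiling panel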
[10] = biological target: Receptor-type tyrosine-protein kinase FLT3 (Homo sapiens, UniProt P36888); assay type: functional;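 note: FLT3 was tested as one member of a kinome-wide kinase panel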
Chain of Receptor-type tyrosine-protein kinase FLT3 (P36888 whole entry): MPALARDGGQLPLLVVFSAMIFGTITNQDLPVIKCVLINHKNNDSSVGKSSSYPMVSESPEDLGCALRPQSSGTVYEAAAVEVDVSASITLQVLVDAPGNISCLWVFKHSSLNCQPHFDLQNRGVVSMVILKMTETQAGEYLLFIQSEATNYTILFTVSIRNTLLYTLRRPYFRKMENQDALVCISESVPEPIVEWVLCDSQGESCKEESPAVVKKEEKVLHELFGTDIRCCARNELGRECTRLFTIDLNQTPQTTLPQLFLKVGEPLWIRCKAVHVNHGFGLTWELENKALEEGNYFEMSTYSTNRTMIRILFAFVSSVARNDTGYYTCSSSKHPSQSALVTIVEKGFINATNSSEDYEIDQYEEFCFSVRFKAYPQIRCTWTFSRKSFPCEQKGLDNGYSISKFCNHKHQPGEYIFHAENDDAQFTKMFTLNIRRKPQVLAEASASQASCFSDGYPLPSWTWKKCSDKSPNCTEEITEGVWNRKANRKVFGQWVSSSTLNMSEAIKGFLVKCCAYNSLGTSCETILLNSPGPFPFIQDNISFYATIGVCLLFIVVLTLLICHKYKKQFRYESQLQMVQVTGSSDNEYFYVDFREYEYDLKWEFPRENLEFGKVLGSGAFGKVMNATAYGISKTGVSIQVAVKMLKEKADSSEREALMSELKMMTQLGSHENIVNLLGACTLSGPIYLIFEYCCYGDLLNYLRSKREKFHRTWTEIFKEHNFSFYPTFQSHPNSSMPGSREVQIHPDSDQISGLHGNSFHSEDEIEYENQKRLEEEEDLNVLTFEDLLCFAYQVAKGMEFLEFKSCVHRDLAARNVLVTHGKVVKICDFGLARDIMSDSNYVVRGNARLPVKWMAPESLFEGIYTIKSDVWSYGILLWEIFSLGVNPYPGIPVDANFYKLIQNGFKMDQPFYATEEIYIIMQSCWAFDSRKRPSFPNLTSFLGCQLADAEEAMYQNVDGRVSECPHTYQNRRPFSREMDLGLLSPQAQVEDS

[11] = biological target: Mitogen-activated protein kinase 14 (Homo sapiens, UniProt Q16539); assay type: functional;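 note: part of a kinome-wide panel, MAPK14 entry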
Chain of Mitogen-activated protein kinase 14 (Q16539 whole entry): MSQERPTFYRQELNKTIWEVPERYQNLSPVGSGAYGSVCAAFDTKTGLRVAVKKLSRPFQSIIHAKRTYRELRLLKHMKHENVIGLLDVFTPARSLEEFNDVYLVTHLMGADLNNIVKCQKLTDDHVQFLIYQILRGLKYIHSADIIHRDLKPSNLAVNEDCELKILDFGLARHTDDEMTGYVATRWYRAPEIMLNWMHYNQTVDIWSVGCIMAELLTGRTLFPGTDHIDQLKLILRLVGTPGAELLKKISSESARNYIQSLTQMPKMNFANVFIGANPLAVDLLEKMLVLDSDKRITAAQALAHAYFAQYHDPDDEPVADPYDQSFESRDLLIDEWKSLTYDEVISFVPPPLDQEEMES

[12] = biological target: Voltage-gated N-type calcium channel alpha-1B subunit/Amyloid beta A4 precursor protein-binding family A member 1 (Homo sapiens, UniProt Q00975+Q02410); assay type: protein assay
[13] = biological target: T1, Sentrin-specific protease 8 (Homo sapiens, UniProt Q96LD8); assay type: functional;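 note: luminescence read-out of SENP8 inhibition, dose-response confirmation following an ultra-high-throughput screen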
T1 sequence (Q96LD8 whole entry): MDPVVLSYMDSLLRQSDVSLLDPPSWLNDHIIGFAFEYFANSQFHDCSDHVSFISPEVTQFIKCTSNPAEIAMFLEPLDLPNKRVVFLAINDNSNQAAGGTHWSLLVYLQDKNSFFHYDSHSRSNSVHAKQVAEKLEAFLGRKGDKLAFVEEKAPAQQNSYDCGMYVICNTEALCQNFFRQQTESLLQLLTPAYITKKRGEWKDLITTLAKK

[14] = biological target: T2, Protein RecA (Mycobacterium tuberculosis, UniProt P9WHJ3); assay: Fluorescence Cell-Free Homogeneous Dose Retest to Identify Inhibitors of RecA-Intein Splicing Activity. [Related pubchem assays (depositor defined):AID2097, AID2223, AID489010, AID492950]; assay type: functional
T2 sequence (P9WHJ3 whole entry): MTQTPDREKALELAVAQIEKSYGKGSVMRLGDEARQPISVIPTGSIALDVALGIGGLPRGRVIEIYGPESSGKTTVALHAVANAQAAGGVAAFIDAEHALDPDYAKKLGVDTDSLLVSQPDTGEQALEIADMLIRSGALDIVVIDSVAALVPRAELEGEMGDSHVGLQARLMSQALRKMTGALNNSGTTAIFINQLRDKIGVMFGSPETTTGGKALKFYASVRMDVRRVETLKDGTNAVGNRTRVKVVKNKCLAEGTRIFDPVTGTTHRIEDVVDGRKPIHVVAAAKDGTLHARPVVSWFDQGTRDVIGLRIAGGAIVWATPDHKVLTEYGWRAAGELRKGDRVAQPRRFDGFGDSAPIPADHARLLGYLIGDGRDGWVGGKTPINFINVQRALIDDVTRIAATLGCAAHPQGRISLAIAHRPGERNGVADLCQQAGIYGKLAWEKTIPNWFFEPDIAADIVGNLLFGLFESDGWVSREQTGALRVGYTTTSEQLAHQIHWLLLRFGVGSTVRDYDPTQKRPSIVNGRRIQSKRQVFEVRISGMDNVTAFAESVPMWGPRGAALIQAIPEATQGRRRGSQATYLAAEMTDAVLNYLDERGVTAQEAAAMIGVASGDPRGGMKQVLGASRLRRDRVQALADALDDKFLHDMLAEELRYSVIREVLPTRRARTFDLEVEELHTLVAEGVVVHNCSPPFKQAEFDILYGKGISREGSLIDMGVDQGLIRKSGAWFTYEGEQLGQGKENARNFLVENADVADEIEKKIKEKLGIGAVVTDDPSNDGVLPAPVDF

[15] = biological target: T3, RNA-binding protein pos-1 (Caenorhabditis elegans, UniProt G5EF15); assay: disruptors of C. elegans POS-1 RNA interaction – biochemical, fluorescence polarization, dose response (AID 1964);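 note: purified POS-1 fused to maltose binding protein made in E. coli; potency of compounds blocking POS-1 binding to fluorescent RNA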
T3 sequence (G5EF15 whole entry): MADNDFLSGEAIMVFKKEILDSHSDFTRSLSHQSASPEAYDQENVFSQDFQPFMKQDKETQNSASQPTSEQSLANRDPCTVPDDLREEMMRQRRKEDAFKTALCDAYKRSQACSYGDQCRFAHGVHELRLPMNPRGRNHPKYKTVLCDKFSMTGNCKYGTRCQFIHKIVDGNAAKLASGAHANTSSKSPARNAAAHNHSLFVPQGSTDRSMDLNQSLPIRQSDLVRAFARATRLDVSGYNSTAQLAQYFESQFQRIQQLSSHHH

[16] = biological target: Large T antigen (Simian virus 40, UniProt P03070); assay type: functional, Betapolyomavirus macacae;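 note: Confirmatory-stage PubChem screen for compounds that inhibit SV40 T antigen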
Chain of Large T antigen (P03070 whole entry): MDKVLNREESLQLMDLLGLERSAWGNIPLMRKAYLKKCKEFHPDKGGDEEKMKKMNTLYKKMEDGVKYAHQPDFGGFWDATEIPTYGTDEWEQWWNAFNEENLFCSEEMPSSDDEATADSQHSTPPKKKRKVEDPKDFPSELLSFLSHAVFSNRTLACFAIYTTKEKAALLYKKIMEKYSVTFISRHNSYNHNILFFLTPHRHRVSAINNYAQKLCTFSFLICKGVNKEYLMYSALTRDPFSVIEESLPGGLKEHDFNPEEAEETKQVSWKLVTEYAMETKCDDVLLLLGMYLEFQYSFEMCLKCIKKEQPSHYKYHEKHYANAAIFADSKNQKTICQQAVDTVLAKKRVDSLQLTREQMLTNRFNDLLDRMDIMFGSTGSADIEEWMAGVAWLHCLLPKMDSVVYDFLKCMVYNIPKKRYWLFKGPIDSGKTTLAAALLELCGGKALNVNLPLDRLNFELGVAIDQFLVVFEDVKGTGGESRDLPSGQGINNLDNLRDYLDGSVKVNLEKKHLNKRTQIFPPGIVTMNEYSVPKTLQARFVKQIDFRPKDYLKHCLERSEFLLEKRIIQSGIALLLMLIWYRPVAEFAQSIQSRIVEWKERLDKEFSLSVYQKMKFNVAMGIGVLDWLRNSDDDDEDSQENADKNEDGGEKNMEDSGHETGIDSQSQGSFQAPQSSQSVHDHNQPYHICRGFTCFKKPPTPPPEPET

[17] = biological target: Intestinal-type alkaline phosphatase (Homo sapiens, UniProt P09923); assay: activation of human intestinal alkaline phosphatase – biochemical, dose response (AID 488873); assay type: functional
Chain of Intestinal-type alkaline phosphatase (P09923 whole entry): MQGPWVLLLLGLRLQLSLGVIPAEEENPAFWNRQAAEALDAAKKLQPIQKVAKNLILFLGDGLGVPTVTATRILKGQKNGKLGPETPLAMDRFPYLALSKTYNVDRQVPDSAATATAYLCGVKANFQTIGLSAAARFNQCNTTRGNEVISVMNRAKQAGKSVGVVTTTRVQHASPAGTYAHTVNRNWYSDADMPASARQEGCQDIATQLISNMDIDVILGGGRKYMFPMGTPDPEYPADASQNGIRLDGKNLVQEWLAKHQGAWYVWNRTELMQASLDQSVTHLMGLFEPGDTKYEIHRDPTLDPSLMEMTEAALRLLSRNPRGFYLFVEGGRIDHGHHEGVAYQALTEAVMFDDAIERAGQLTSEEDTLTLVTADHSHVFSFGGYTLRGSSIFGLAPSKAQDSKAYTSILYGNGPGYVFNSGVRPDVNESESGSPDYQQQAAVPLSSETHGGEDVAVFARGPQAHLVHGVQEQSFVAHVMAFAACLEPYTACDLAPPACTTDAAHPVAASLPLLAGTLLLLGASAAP

[18] = biological target: T4, Alkaline phosphatase, tissue-nonspecific isozyme (Homo sapiens, UniProt P05186); assay: activation of tissue-nonspecific alkaline phosphatase – biochemical, TNAP isozyme, mouse IAP uHTS hits, selectivity assay for mouse IAP activator project, dose response (AID 488880); assay type: functional
T4 sequence (P05186 whole entry): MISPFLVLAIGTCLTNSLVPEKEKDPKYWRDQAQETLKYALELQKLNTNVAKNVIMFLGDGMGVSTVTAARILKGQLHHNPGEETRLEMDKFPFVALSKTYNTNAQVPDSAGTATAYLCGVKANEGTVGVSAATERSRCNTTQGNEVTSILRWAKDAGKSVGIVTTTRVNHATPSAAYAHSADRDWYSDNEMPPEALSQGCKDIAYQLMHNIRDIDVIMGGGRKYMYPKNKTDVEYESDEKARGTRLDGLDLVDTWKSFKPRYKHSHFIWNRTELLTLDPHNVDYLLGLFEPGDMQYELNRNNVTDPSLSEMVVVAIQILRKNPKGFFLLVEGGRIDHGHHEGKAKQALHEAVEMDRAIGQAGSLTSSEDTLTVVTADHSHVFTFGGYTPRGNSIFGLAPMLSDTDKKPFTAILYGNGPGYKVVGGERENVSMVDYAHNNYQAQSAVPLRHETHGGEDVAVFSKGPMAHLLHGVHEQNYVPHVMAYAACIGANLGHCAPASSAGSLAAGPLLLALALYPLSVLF

Chain of ALK tyrosine kinase receptor (Q9UM73 whole entry): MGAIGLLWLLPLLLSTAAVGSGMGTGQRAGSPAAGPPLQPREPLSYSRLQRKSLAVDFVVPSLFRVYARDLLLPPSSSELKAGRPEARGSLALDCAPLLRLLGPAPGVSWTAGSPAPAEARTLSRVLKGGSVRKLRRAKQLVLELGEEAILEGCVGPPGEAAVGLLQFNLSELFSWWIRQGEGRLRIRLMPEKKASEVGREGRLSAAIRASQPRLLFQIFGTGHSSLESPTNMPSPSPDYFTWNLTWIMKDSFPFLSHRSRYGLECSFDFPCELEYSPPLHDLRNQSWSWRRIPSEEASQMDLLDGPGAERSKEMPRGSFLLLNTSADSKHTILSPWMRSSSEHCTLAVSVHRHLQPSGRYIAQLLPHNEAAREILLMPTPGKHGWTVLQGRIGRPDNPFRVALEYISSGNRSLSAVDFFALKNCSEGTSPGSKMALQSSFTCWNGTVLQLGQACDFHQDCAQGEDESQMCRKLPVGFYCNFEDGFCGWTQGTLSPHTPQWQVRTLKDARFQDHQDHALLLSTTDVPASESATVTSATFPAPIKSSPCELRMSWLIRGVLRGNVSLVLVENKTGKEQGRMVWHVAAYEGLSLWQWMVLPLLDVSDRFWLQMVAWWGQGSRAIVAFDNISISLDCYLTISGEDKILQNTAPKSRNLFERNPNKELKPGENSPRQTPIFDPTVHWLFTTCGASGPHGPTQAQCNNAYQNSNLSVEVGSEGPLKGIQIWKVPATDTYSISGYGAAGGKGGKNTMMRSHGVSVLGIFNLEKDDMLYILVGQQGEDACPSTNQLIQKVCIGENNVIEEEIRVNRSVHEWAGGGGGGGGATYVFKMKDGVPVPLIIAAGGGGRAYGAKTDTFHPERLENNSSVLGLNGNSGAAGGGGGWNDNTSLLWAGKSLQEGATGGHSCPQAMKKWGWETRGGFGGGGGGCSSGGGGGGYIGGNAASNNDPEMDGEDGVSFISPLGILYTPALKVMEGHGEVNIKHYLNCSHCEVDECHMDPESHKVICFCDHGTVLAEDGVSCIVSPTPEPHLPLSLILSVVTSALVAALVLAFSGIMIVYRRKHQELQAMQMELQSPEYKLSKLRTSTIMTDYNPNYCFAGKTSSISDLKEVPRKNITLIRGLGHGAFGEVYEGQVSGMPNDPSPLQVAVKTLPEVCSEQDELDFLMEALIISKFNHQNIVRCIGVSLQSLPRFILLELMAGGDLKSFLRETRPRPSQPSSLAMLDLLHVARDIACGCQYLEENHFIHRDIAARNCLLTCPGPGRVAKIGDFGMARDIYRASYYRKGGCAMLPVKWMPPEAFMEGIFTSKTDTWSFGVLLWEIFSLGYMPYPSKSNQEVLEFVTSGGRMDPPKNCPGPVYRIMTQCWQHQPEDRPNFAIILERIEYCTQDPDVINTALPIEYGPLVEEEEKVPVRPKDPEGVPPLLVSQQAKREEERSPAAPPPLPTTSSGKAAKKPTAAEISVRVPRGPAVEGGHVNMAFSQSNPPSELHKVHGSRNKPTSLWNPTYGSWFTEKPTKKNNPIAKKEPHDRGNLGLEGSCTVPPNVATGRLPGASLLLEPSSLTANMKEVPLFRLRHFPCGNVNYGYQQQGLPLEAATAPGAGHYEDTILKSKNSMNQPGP
Chain of cAMP-dependent protein kinase catalytic subunit PRKX (P51817 whole entry): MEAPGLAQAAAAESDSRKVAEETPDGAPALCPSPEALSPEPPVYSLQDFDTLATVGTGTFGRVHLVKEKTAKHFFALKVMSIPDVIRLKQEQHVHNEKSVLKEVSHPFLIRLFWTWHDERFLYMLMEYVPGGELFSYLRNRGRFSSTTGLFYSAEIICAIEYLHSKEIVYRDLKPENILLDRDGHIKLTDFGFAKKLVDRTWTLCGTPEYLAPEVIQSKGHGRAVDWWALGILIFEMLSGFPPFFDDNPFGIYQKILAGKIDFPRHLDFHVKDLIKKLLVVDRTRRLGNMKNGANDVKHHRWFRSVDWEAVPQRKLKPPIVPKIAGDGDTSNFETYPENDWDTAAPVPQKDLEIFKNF

For `Cc1ccc(-c2cc3nc(Br)cnc3[nH]2)cc1`, the Ki [1] was > 3.16 µM (inactive), the Ki [2] was > 6.31 µM (inactive) and the Ki [3] was > 6.31 µM (inactive). The Ki [4] was > 2.51 µM (inactive), the Ki [5] was 0.1 µM (active) and the Ki [6] was > 5.01 µM (inactive). The Ki [7] was > 2.51 µM (inactive), the Ki [8] was > 1.26 µM (inactive) and the Ki [9] was > 3.98 µM (inactive). The Ki [10] was > 3.16 µM (inactive) and the Ki [11] was > 3.98 µM (inactive).
With `CC(=O)N(C1=C(Cl)C(=O)c2ccccc2C1=O)c1ccc(C(=O)O)cc1` the IC50 [12] was 0.225 µM (active) and the IC50 [13] was 5.99 µM (active).
With `CC1(C)C=C2C(=NN(c3ccccc3)C(N)=C2C#N)CO1` the EC50 [14] was 0.297 µM (active).
For `O=C1C=C(O)c2c(O)cc(O)c(O)c2C1=O`, the EC50 [15] was 1.07 µM (inconclusive), the IC50 [16] was > 100 µM (active) and the EC50 [17] was > 100 µM (inactive). For the same molecule, the EC50 [18] was > 100 µM (inactive).
